The results in this text go back to PubChem BioAssay AID260 (DTP/NCI, 2004).

“And” between values parts separate entries of the source, which are not always exact repeats. Identical values can stand only once. Toxic doses and inconclusive results are not listed.

The assay relates to CD2F1 mice, intracerebral L1210 leukemia, survival T/C. Put plainly: NCI In Vivo Anticancer Drug Screen. Data for tumor model L1210 Leukemia (intracerebral) in CD2F1 (CDF1) mice. The following applies: higher = longer survival. On the procedure:
The antitumor activity of compounds was measured in mice bearing transplantable tumors. Survival or tumor size were measured and the results are expressed as the measurement made in the treated group (T) divided by the measurement made in the vehicle treated control group (C). The tumor model used in this assay is L1210 Leukemia (intracerebral) in CD2F1 (CDF1) mice

Setting [1] is: endpoint: median survival time, dose: 8.0 mg/kg/injection, schedule: Q01DX009 (ip), vehicle: saline with Tween-80.
The mark [2] stands for this setting: endpoint: median survival time, dose: 16.0 mg/kg/injection, schedule: Q01DX009 (ip), vehicle: saline with Tween-80.
Where [3] appears, read: endpoint: median survival time, dose: 32.0 mg/kg/injection, schedule: Q01DX009 (ip), vehicle: saline with Tween-80.

With `NC(C/[N+]([O-])=N/O)C(=O)O` (stereo unspecified), the T/C (endpoint: median survival time, dose: 1.0 mg/kg/injection, schedule: Q01DX009 (ip), vehicle: saline with Tween-80) is 98 % of control; the T/C (endpoint: median survival time, dose: 2.0 mg/kg/injection, schedule: Q01DX009 (ip), vehicle: saline with Tween-80) is 105 % of control; the T/C (endpoint: median survival time, dose: 4.0 mg/kg/injection, schedule: Q01DX009 (ip), vehicle: saline with Tween-80) is 101 % of control; the T/C under setting [1] was 101 % of control; the T/C under setting [2] was 102 % of control; the T/C under setting [3] is 104 % of control. Further, the T/C (endpoint: median survival time, dose: 56.25 mg/kg/injection, schedule: Q01DX009 (ip), vehicle: saline) was 115 % of control; the T/C (endpoint: median survival time, dose: 100.0 mg/kg/injection, schedule: Q01DX009 (ip), vehicle: Klucel (hydroxypropylcellulose) (HPC)) is 110 % of control and 112 % of control; the T/C (endpoint: median survival time, dose: 112.5 mg/kg/injection, schedule: Q01DX009 (ip), vehicle: saline) is 89 % of control; the T/C (endpoint: median survival time, dose: 200.0 mg/kg/injection, schedule: Q01DX009 (ip), vehicle: Klucel (hydroxypropylcellulose) (HPC)) is 86 % of control and 87 % of control; the T/C (endpoint: median survival time, dose: 225.0 mg/kg/injection, schedule: Q01DX009 (ip), vehicle: saline) is 89 % of control.

As for `C[C@]1(O)CC[C@H]2[C@@H]3CCC4=CC(=O)CC[C@]4(C)[C@@]3(F)[C@@H](O)C[C@@]21C`, the T/C under setting [1] is 112 % of control; the T/C under setting [2] was 112 % of control; the T/C under setting [3] is 104 % of control; the T/C (endpoint: median survival time, dose: 64.0 mg/kg/injection, schedule: Q01DX009 (ip), vehicle: saline with Tween-80) is 104 % of control; the T/C (endpoint: median survival time, dose: 128.0 mg/kg/injection, schedule: Q01DX009 (ip), vehicle: saline with Tween-80) is 122 % of control; the T/C (endpoint: median survival time, dose: 256.0 mg/kg/injection, schedule: Q01DX009 (ip), vehicle: saline with Tween-80) is 104 % of control. Also, under “endpoint: median survival time, dose: 512.0 mg/kg/injection, schedule: Q01DX009 (ip), vehicle: saline with Tween-80”, the T/C is 96 % of control.

For the compound `CN(C)N=Nc1cccc(C(N)=O)c1`, the T/C (endpoint: median survival time, dose: 10.0 mg/kg/injection, schedule: Q01DX005 (ip), vehicle: Klucel (hydroxypropylcellulose) (HPC)) was 104 % of control and 112 % of control; the T/C (endpoint: median survival time, dose: 20.0 mg/kg/injection, schedule: Q01DX005 (ip), vehicle: Klucel (hydroxypropylcellulose) (HPC)) is 120 % of control and 115 % of control; the T/C (endpoint: median survival time, dose: 80.0 mg/kg/injection, schedule: Q01DX005 (ip), vehicle: Klucel (hydroxypropylcellulose) (HPC)) is 102 % of control and 110 % of control.

On to `CCC(C)N(C)/N=N/c1nc[nH]c1C(N)=O` (stereo unspecified), for which the T/C (endpoint: median survival time, dose: 16.0 mg/kg/injection, schedule: Q01DX005 (ip), vehicle: saline with Tween-80) was 105 % of control; the T/C (endpoint: median survival time, dose: 32.0 mg/kg/injection, schedule: Q01DX005 (ip), vehicle: saline with Tween-80) is 105 % of control; the T/C (endpoint: median survival time, dose: 64.0 mg/kg/injection, schedule: Q01DX005 (ip), vehicle: saline with Tween-80) was 116 % of control; the T/C (endpoint: median survival time, dose: 128.0 mg/kg/injection, schedule: Q01DX005 (ip), vehicle: saline with Tween-80) was 116 % of control.

Regarding `CCCN(C)C(=O)N(CCCl)N=O`, the T/C by setting is: (endpoint: median survival time, dose: 15.6 mg/kg/injection, schedule: Q01DX001 (ip), vehicle: DMSO) 166 % of control; (endpoint: median survival time, dose: 15.6 mg/kg/injection, schedule: Q01DX001 (oral), vehicle: saline + alcohol) 113 % of control; (endpoint: median survival time, dose: 31.3 mg/kg/injection, schedule: Q01DX001 (ip), vehicle: saline + alcohol) 172 % of control; (endpoint: median survival time, dose: 31.3 mg/kg/injection, schedule: Q01DX001 (oral), vehicle: saline + alcohol) 154 % of control; (endpoint: median survival time, dose: 62.5 mg/kg/injection, schedule: Q01DX001 (ip), vehicle: saline + alcohol) 389 % of control; (endpoint: median survival time, dose: 62.5 mg/kg/injection, schedule: Q01DX001 (oral), vehicle: saline + alcohol) 271 % of control. Besides, the T/C (endpoint: median survival time, dose: 125.0 mg/kg/injection, schedule: Q01DX001 (ip), vehicle: saline + alcohol) is 198 % of control; the T/C (endpoint: median survival time, dose: 125.0 mg/kg/injection, schedule: Q01DX001 (oral), vehicle: saline + alcohol) was 490 % of control; the T/C (endpoint: median survival time, dose: 250.0 mg/kg/injection, schedule: Q01DX001 (ip), vehicle: DMSO) was 169 % of control; the T/C (endpoint: median survival time, dose: 250.0 mg/kg/injection, schedule: Q01DX001 (ip), vehicle: saline + alcohol) is 116 % of control; the T/C (endpoint: median survival time, dose: 250.0 mg/kg/injection, schedule: Q01DX001 (oral), vehicle: saline + alcohol) is 97 % of control.

Consider `C[C@@H](CN1CC(=O)NC(=O)C1)N1CC(=O)NC(=O)C1`, for which the T/C (endpoint: mean survival time, dose: 64.0 mg/kg/injection, schedule: Q01DX009 (ip), vehicle: water) is 164 % of control; the T/C (endpoint: mean survival time, dose: 256.0 mg/kg/injection, schedule: Q01DX009 (ip), vehicle: water) is 111 % of control; the T/C (endpoint: mean survival time, dose: 512.0 mg/kg/injection, schedule: Q01DX009 (ip), vehicle: water) was 100 % of control.

Regarding `CC1CCC(NC(=O)N(CCCl)N=O)CC1` (stereo unspecified), the T/C by setting is: (endpoint: median survival time, dose: 4.0 mg/kg/injection, schedule: Q01DX001 (ip), vehicle: other) 123 % of control; (endpoint: median survival time, dose: 6.25 mg/kg/injection, schedule: Q01DX001 (ip), vehicle: DMSO) 116 % of control; (endpoint: median survival time, dose: 6.25 mg/kg/injection, schedule: Q01DX001 (ip), vehicle: saline + alcohol) 116 % of control; (endpoint: median survival time, dose: 6.25 mg/kg/injection, schedule: Q01DX001 (oral), vehicle: saline + alcohol) 109 % of control; (endpoint: median survival time, dose: 12.5 mg/kg/injection, schedule: Q01DX001 (ip), vehicle: DMSO) 116 % of control; (endpoint: median survival time, dose: 12.5 mg/kg/injection, schedule: Q01DX001 (ip), vehicle: saline + alcohol) 119 % of control. The T/C by setting is: (endpoint: median survival time, dose: 12.5 mg/kg/injection, schedule: Q01DX001 (oral), vehicle: saline + alcohol) 109 % of control; (endpoint: median survival time, dose: 16.0 mg/kg/injection, schedule: Q01DX001 (ip), vehicle: other) 166 % of control; (endpoint: median survival time, dose: 25.0 mg/kg/injection, schedule: Q01DX001 (ip), vehicle: saline + alcohol) 166 % of control; (endpoint: median survival time, dose: 25.0 mg/kg/injection, schedule: Q01DX001 (oral), vehicle: saline + alcohol) 120 % of control; (endpoint: median survival time, dose: 32.0 mg/kg/injection, schedule: Q01DX001 (ip), vehicle: other) 333 % of control; (endpoint: median survival time, dose: 50.0 mg/kg/injection, schedule: Q01DX001 (ip), vehicle: DMSO) 123 % of control. In addition, the T/C is 155 % of control (endpoint: median survival time, dose: 50.0 mg/kg/injection, schedule: Q01DX001 (ip), vehicle: saline + alcohol); 88 % of control (endpoint: median survival time, dose: 64.0 mg/kg/injection, schedule: Q01DX001 (ip), vehicle: other); 169 % of control (endpoint: median survival time, dose: 100.0 mg/kg/injection, schedule: Q01DX001 (ip), vehicle: DMSO); 92 % of control (endpoint: median survival time, dose: 100.0 mg/kg/injection, schedule: Q01DX001 (ip), vehicle: saline + alcohol); 246 % of control (endpoint: median survival time, dose: 100.0 mg/kg/injection, schedule: Q01DX001 (oral), vehicle: saline + alcohol).

Consider `CCC1=C(c2ccc(OC)cc2)CCC(C(=O)O)C1C` (stereo unspecified), for which the T/C is, setting by setting: (endpoint: median survival time, dose: 4.0 mg/kg/injection, schedule: Q01DX005 (ip), vehicle: saline) 103 % of control; (endpoint: median survival time, dose: 4.0 mg/kg/injection, schedule: Q01DX005 (ip), vehicle: suspension in saline) 102 % of control; (endpoint: median survival time, dose: 8.0 mg/kg/injection, schedule: Q01DX005 (ip), vehicle: saline) 114 % of control; (endpoint: median survival time, dose: 8.0 mg/kg/injection, schedule: Q01DX005 (ip), vehicle: suspension in saline) 102 % of control; (endpoint: median survival time, dose: 16.0 mg/kg/injection, schedule: Q01DX005 (ip), vehicle: saline) 112 % of control; (endpoint: median survival time, dose: 16.0 mg/kg/injection, schedule: Q01DX005 (ip), vehicle: suspension in saline) 96 % of control. The T/C is, setting by setting: (endpoint: median survival time, dose: 32.0 mg/kg/injection, schedule: Q01DX005 (ip), vehicle: saline) 102 % of control; (endpoint: median survival time, dose: 32.0 mg/kg/injection, schedule: Q01DX005 (ip), vehicle: suspension in saline) 104 % of control.

For `O=C1C(NCCO)=C(N2CC2)C(=O)C(NCCO)=C1N1CC1`, the T/C runs as follows: (endpoint: mean survival time, dose: 0.37 mg/kg/injection, schedule: Q01DX009 (ip), vehicle: saline) 111 % of control; (endpoint: mean survival time, dose: 1.5 mg/kg/injection, schedule: Q01DX009 (ip), vehicle: saline) 119 % of control and 122 % of control.

Consider `CC(=O)c1ccc(N=NN(C)C)cc1`, for which the T/C (endpoint: mean survival time, dose: 5.0 mg/kg/injection, schedule: Q01DX007 (ip), vehicle: other) is 107 % of control; the T/C (endpoint: mean survival time, dose: 10.0 mg/kg/injection, schedule: Q01DX007 (ip), vehicle: other) is 89 % of control; the T/C (endpoint: mean survival time, dose: 20.0 mg/kg/injection, schedule: Q01DX007 (ip), vehicle: other) is 97 % of control; the T/C (endpoint: mean survival time, dose: 40.0 mg/kg/injection, schedule: Q01DX007 (ip), vehicle: other) was 103 % of control; the T/C (endpoint: mean survival time, dose: 60.0 mg/kg/injection, schedule: Q01DX007 (ip), vehicle: other) is 93 % of control.
